The test system of this assay is polymorphonuclear cells infiltration in hind paw tissue. Kind of assay: Ex vivo histological evaluation of hind paw tissue (HE staining, PMN infiltration). The format is in vivo, Wistar-SPF rats. To be noted: 6 h after carrageenan, Indomethacin 5 mg/kg. On the procedure:
The carrageenan-induced hind paw edema model was used for the determination of anti-inflammatory activity. Animals were i.p. pretreated with complexes 2, 4, and 5 (the dosages of the individual complexes were adjusted to contain the same amount of gold as in 10 mg/kg dose of Auranofin), Indomethacin (5 mg/kg), or 25% DMSO (v/v in water) 30 min prior to the injection of 1% λ-carrageenan solution (50 µL) into the plantar side of right hind paws of the rats. The paw volume was measured immediately after the carrageenan injection (this value was set-up as baseline value for the hind paw volume) and during the next 6 h after the administration of the edematogenic agent using a plethysmometer (model 7159, Ugo Basile, Varese, Italy). The degree of swelling was evaluated as a percentage of the change of the volume of the right hind paw after the carrageenan treatment from the baseline volume. A non-steroidal anti-inflammatory drug Indomethacin was used as a positive control and the obtained data were also compared with the previously reported profile of antiedematous activity for Auranofin [38]. After 6 h, the animals were sacrificed and the edematous feet were dissected, the tissue from the plantar parts was extracted, fixed and stained by a standard hematoxylin/eosin (HE) staining for cytological evaluation of polymorphonuclear cells infiltration.
To assess the tissue consequences connected with the reduction of inflammation caused by the tested compounds after the intraplantar injection of carrageenan, the histopathological observations were made on the tissue sections obtained from the laboratory animals after the plethysmometric experiments were finished. All animals were sacrificed by cervical dislocation, and immediately after that, the tissue samples were taken from the plantar area of hind paws. The histopathological changes in tissues, stained by the standard HE staining (see Figure 10), were evaluated by the presence of the inflammation infiltrate, which contained mainly neutrophils (polymorphonuclear cells - PMN).

Molecules are shown by their SMILES.

In the case of `COc1ccc2c(c1)c(CC(=O)O)c(C)n2C(=O)c1ccc(Cl)cc1` [Indomethacin, reference compound], the “PMN (neutrophil) infiltrate in hind paw tissue sections” value is “mainly scarce and diffuse”.

Source of the values: paper PMC4198181, “Gold(I) Complexes of 9-Deazahypoxanthine as Selective Antitumor and Anti-Inflammatory Agents” (PLoS ONE, 2014).
